Results on six compounds are retold here after patent US8722703B2, “Fused amino pyridines for the treatment of brain tumors” (Curis, Inc., priority 2009, dated 2014).

One data set addresses HSP90 (Homo sapiens, UniProt P07900). Put plainly: HSP90 competition binding (fluorescence polarization) assay. The source says: (b) HSP90 Competition Binding (Fluorescence Polarization) Assay.
A fluorescein isothiocyanate (FITC) labeled GM was purchase from InvivoGen (ant-fgl-1). The interaction between HSP90 and labeled GM forms the basis for the fluorescence polarization assay. A free and fast-tumbling FITC labeled GM emits random light with respect to the plane of polarization plane of excited light, resulting in a lower polarization degree (mP) value. When GM is bound to HSP90, the complex tumble slower and the emitted light is polarized, resulting in a higher mP value. […] The assay buffer contained 20 mM HEPES (pH 7.3), 50 mM KCl, 1 mM DTT, 50 mM MgCl2, 20 mM Na2MoO4, 0.01% NP40 with 0.1 mg/ml bovine gamma-globulin.
(Fluorescence polarisation rises when a labelled molecule tumbles more slowly, as on binding a larger partner.)

Data set [1] in a line: Mouse brain concentrations after oral 30 mg/Kg in nude mice with U87MG xenografts. As to conditions: oral (30 mg/Kg) delivery, U87MG xenografts; for concentration at 0 hr / concentration at 0.5 hr / concentration at 1 hr / concentration at 3 hr / concentration at 6 hr / concentration at 24 hr: female, athymic nude (CD-1 nu/nu), mouse, brain, read-out: HSP90 Compounds in Mouse Brain. The data set is classed as in vivo.

The subject of data set [2] is H1975 orthotopic lung tumor. Put plainly: Efficacy study in the H1975 orthotopic lung tumor (NSCLC) model. The format is in vivo, nude mice. Conditions: Compound-15 120 mg/kg orally once every two days, erlotinib 50 mg/kg orally once a day, 5 wk. As to the method: Dose-dependent efficacy study of Compound-15 in H1975 orthotopic lung tumor model (n=11): Mice were treated with Compound-15 (20, 40, 80, and 120 mg/kg) starting 4 day after tumor implantation.

In data set [3] the test system is A549 orthotopic lung tumor. Put plainly: Efficacy study in A549 orthotopic lung tumor model. The data set is classed as in vivo, nude mice. Conditions: Compound-15 120 mg/kg orally once every two days, erlotinib 50 mg/kg orally once a day, 4 wk.
The test system of another data set is H1975 intracranial tumor. Put plainly: Efficacy study in H1975 intracranial metastasis model. The data set is classed as in vivo, nude mice. Conditions: Compound-15 120 mg/kg orally once every two days, lapatinib 75 mg/kg orally twice a day, 4 wk.

Turning to `CC(C)(C)CNCCCn1c(Sc2cc3c(cc2Br)OCO3)nc2c(N)nccc21` [Compound 10], on HSP90, the half-inhibitory concentration (IC50) was in the range of 100 to 1000 nM.

Compound `CC(C)(C)CNCCCn1c(Sc2cc3c(cc2I)OCO3)nc2c(N)nccc21` [Compound 11, 2-(6-iodobenzo[d][1,3]dioxol-5-ylthio)-1-(3-(neopentylamino)propyl)-1H-imidazo[4,5-c]pyridin-4-amine] displayed an IC50 on HSP90 of 100 to 1000 nM.

In the case of `NC(=O)CCCn1c(Sc2cc3c(cc2I)OCO3)nc2c(N)nccc21` [Compound 22], in data set [1], the concentration at 0 hr turned out to be 0 ng/g, the concentration at 0.5 hr stood at 2.5 ng/g, the concentration at 1 hr amounted to 2.2 ng/g and the concentration at 3 hr came out at 3.7 ng/g. In addition, in data set [1], the concentration at 6 hr is 0.9 ng/g, the concentration at 24 hr is 1.3 ng/g and the “AUC in mouse brain” value was determined as 36.7 ng·h/g.

Take `CC(C)(C)CNCCn1c(Sc2cc3c(cc2S(C)(=O)=O)OCO3)nc2c(N)nccc21` [Compound 23]: in data set [1], the concentration at 0 hr is 0 ng/g, the concentration at 0.5 hr was 5.4 ng/g, the concentration at 1 hr is 13.6 ng/g and the concentration at 3 hr was determined as 21.5 ng/g. For the same compound, in data set [1], the concentration at 6 hr is 9.1 ng/g, the concentration at 24 hr amounted to 3 ng/g and the “AUC in mouse brain” value is 231.8 ng·h/g.

With `C#Cc1cccc(Nc2ncnc3cc(OCCOC)c(OCCOC)cc23)c1` [erlotinib, reference compound], the figures for the animal survival entry in data set [2] and in data set [3] were “no therapeutic benefit” and “no antitumor effect”, respectively.

Turning to `CS(=O)(=O)CCNCc1ccc(-c2ccc3ncnc(Nc4ccc(OCc5cccc(F)c5)c(Cl)c4)c3c2)o1` [lapatinib, reference compound], the animal survival entry in the data set on H1975 intracranial tumor is given as “lack of lapatinib efficacy”.

A word on the IC50: it is the concentration that gives 50% inhibition. A high value points to weaker potency in that assay.
